# Test results as given in US6596878B2, “Methods and compositions for inhibiting cell proliferative disorders” (Yissum Research & Development Company of the Hebrew …, priority 1994, dated 2003).
# Experiments:
# [1] = tested on: MCF7 cells overexpress the HER2 kinase (MCF7-HER2); test: MCF-7/HER-2 SRB growth assay; assay type: cell-based, human; conditions: Table VI, 0.5% FBS, four days
# Description: (§1) This example illustrates the ability of the exemplary compounds to inhibit receptor tyrosine kinases, such as HER2 and/or EGFR. The following target cells were used for cellular kinaseassays: NIH3T3 clone C7 (Honegger et al., supra) engineered to over-express human EGF receptor; NIH3T3 cells engineered to over-express a chimeric receptor containing the EGFR extracellular domain and the HER2 intracellular kinase domain; the human mammary carcinoma line BT474 (ATCC HTB2) expressing HER2; and the human glioblastoma line U1242 that expresses PDGFR-β. Growth assays were carried out using human mammary epithelial SKBR3 (ATCC HTB30) cells, SKOV3 (ATCC HTB77) human ovarian cancer cell line, A431 cells, MCF7 human breast carcinoma cells, MCF7 cells overexpress the HER2 kinase (MCF7-HER2), NIH3T3 cells, and NIH3T3 cells overexpressing the HER2 kinase (3T3-HER2).
# MCF-7 cells are seeded at 2000 cells/ well in a 96-well flat bottom plate in normal growth media, which was 10% FBS/RPMI supplemented with 2 mM Glutamine. The plate of cells is incubated for about 24 hours at 37° C. after which it receives an equal volume of compound dilution per well making the total volume per well 200 μl. The compound is prepared at 2 times the desired highest final concentration and serially diluted in the normal growth media in a 96-well round bottom plate and then transferred to plate of cells. DMSO serves as the vector control up to 0.2% as final concentration. The cells are then incubated at 37° C. in a humidified 5% CO2 incubator.
# Four days following dosing of compound, the media is discarded and 200 μl/well of ice-cold 10% TCA (Trichloroacetic Acid) is added to fix cells. After 60 minutes at 4° C., the TCA is discarded and the plate is rinsed 5 times with water. The plate is then air-dried and 100 μl/well of 0.4% SRB (Sulforhodamine B from Sigma) in 1% Acetic Acid is added to stain cells for 10 minutes at room temperature. The SRB is discarded and the plate is rinsed 5 times with 1% Acetic Acid. After the plate is completely dried, 100 μl/well of 10 mM Tris-base is added to solubilize the dye. After 5 to 10 minutes, the plate is read on a Dynatech ELISA Plate Reader at dual wavelengths at 570 nm and 630 nm.
# 8. MCF-7/HER-2 SRB Growth Assay
# The protocol is basically the same as that above (for the MCF-7 Growth Assay) except that immediately before the compound is added, the normal growth media is removed and 0.5% FBS/RPMI supplemented with 2 mM Glutamine is added onto the cells. The compound is also prepared in this 0.5% serum media. The plate of cells is incubated for four days and developed as usual.
# NIH3T3 cells = test: 3T3 growth assay, NIH3T3C7 control cells; assay type: cell-based; conditions: Mus musculus, NIH3T3, 96 h, Table VI, 10% CS, 4 days
# Description: as §1
# The 3T3 growth assay was carried out as follows:
# (1) Dulbecco's Modified Eagle Medium (D-MEM), Gibco 11965-050;
# (4) Fetal Bovine Serum Certified, Gibco 16000-028;
# (5) Dulbecco's Phosphate-Buffered Saline (D-PBS), Gibco 14190-029;
# (6) Sulforhodamine B (SRB), Sigma S-9012. 0.4% SRB in 1% acetic acid;
# (7) 10 mM Tris-base, Fisher BP152-5;
# (8) 10% TCA, Trichloroacetic acid, Fisher A322-500;
# (9) 96-well flat bottom plate (sterile), Corning 08-757-155;
# (10) 100 ml reagent reservoir 9 (sterile), Matrix Technologies Corporation, 8086;
# (11) Sterile pipet tips, Fisher 21-197-8E;
# NIH3T3C7 cells in 10% CS+2 mM GLN DMEM HER2C7 cells in 2% FBS+2 mM GLN DMEM
# (1) HER2C7 (engineered to express HER2) and NIH3T3C7 (as the control) cells are used for this assay. NIH3T3C7 cells are seeded at 2500 cells/well, […] in 10% CS+2 mM GLN DMEM, in a 96 well plate; HER2C7 cells are seeded at 6000 cells/well, 100 μl/well in 2% FBS+2 mM GLN DMEM, in a 96 well plate. Cells are incubated at 37° C., 5% CO2 overnight to allow for cell attachment to the plate;
# (2) The test compound is added to the cells at day 2. The compounds are prepared in the appropriate growth medium (10% CS+2 mM) GLN DMEM for NIH3T3C7 cells; 2% FBS+2 mM GLN DMEM for HER2C7 cells) in a 96 well plate, and serially diluted. A total of 100 μl/well medium of the diluted compounds is added into the cells. The total volume of each well is 200 μl. Quadruplicates (wells) and 11 concentration points are applied to each compound tested.
# (3) After the cells are treated with the compound for 4 days, the cells are washed with PBS and fixed with 200 μl/well ice-cold 10% TCA for one hour at 0-5° C. condition.
# (4) Remove TCA and rinse wells 5 times with deionized water. Dry plates upside down with paper towels. Stain cells with 0.4% SRB at 100 μl/well for 10 minutes.
# (5) Pour off SRB and rinse plate 5 times with 1% acetic acid. Dry plate completely.
# (6) Solubilize the dye with 10 mM Tris-base at 100 μl/well for 10 minutes on a shaker.
# (7) Read the plate at dual wavelengths at 570 nm and 630 nm on Dynatech Elisa plate reader.
Compound,"IC50 ([1]; Homo sapiens, MCF7, 96 h) [µM]",IC50 (NIH3T3 cells) [µM],IC50 [1] [µM]
"CC(C)c1cc(/C=C(\C#N)C(=S)NCCCc2ccccc2)cc(C(C)C)c1O [Compound M24, (E)-3-(3,5-Diisopropyl-4-hyrdroxyphenyl)-2-[(3-phenyl-n-propyl)aminothiocarbonyl]acrylonitrile]",1,,
"CC(C)(C)c1cc(/C=C(\C#N)C(=O)Nc2ccc(C(F)(F)F)cc2)cc(C(C)(C)C)c1O [Compound M35, (E)-3-(3,5-di-t-Butyl-4-hydroxyphenyl)-2-[(4-trifluoromethyl)phenylaminocarbonyl]acrylonitrile]",0.09,18,
Cc1cc(/C=C(\C#N)S(=O)(=O)c2ccccc2)cc(C)c1O [Compound M31],,> 100,
"CC(C)(C)c1cc(/C=C(\C#N)S(=O)(=O)c2ccccc2)cc(C(C)(C)C)c1O [Compound M33, (E)-3-(3,5-di-t-Butyl-4-hydroxyphenyl)-2-(phenylsulfonyl)acrylonitrile]",0.05,35,
"(E,E)-2-[[-Cyano-2-(3,5-diisopropyl-4-hydroxyphenyl)ethenyl]sulfonyl]-3-(3,5-di-t-butyl-4-hydroxyphenyl)acrylonitrile [Compound M37]",,,1
"CC(C)c1cc(/C=C(\C#N)C(=O)NCCCc2ccccc2)cc(C(C)C)c1O [Compound M21, (E)-3-(3,5-Diisopropyl-4-hydroxyphenyl)-2-[(3-phenyl-n-propyl)aminocarbonyl]acrylonitrile]",2,> 100,
CC(C)c1cc(/C=C(\C#N)S(=O)(=O)c2ccccn2)cc(C(C)C)c1O [Compound M26],,> 100,

# Second part, led by results:
"IC50 ([1]; Homo sapiens, MCF7, 96 h) [µM]",Compound,IC50 (NIH3T3 cells) [µM],IC50 [1] [µM]
0.06,"CC(C)(C)c1cc(/C=C(\C#N)S(=O)(=O)c2ccccn2)cc(C(C)(C)C)c1O [Compound M34, (E)-3-(3,5-di-t-Butyl-4-hydroxyphenyl)-2-[(pyrid-2-yl)sulfonyl]acrylonitrile]",40,
9,"CC(C)c1cc(C=C(C#N)C(N)=C(C#N)C#N)cc(C(C)C)c1O [Compound M22, (E)-2-(1-Amino-2,2-dicyanoethenyl-3-(3,5-diisopropyl-4-hydroxyphenyl)acrylonitrile)]",,
6,CC(C)c1cc(/C=C(\C#N)S(=O)(=O)CC#N)cc(C(C)C)c1O [Compound M27],> 100,
6,N#C/C(=C\c1ccc(O)c(O)c1)C(=O)Nc1cccc(C(F)(F)F)c1 [Compound M15],,
> 50,Cc1cc(/C=C(\C#N)S(=O)(=O)c2ccccn2)cc(C)c1O [Compound M32],> 100,
2,"CC(C)(C)c1cc(/C=C(\C#N)S(=O)(=O)CC#N)cc(C(C)(C)C)c1O [Compound M36, (E)-3-(3,5-di-t-Butyl-4-hydroxyphenyl)-2-(cyanomethylsulfonyl)acrylonitrile]",,
2,CC(C)c1cc(/C=C(\C#N)S(=O)(=O)c2ccccc2)cc(C(C)C)c1O [Compound M30],70,
0.2,CC(C)(C)c1cc(/C=C(\C#N)C(N)=S)cc(C(C)(C)C)c1O [Compound M11],75,
0.6,"CC(C)(C)c1cc(/C=C(\C#N)C(=O)NCCCc2ccccc2)cc(C(C)(C)C)c1O [Compound M20, (E)-3-(3,5-di-t-Butyl-4-hydroxyphenyl)-2-[(3-phenyl-n-propyl)aminocarbonyl]acrylonitrile]",90,
2,CC(C)c1cc(/C=C(\C#N)S(=O)(=O)/C(C#N)=C/c2cc(C(C)C)c(O)c(C(C)C)c2)cc(C(C)C)c1O [Compound M29],> 100,
